Measurements reported in ChEMBL document CHEMBL1149249 (J Med Chem, 2004).
pKi: −log10 of the molar value.

Molecular target: Adenosine receptor A2a (Rattus norvegicus, UniProt P30543)
Assay: Displacement of [3H]ZM241385 from adenosine A2A receptor in rat brain membrane
Format: cell membranes

Sequence of Adenosine receptor A2a (P30543 whole entry): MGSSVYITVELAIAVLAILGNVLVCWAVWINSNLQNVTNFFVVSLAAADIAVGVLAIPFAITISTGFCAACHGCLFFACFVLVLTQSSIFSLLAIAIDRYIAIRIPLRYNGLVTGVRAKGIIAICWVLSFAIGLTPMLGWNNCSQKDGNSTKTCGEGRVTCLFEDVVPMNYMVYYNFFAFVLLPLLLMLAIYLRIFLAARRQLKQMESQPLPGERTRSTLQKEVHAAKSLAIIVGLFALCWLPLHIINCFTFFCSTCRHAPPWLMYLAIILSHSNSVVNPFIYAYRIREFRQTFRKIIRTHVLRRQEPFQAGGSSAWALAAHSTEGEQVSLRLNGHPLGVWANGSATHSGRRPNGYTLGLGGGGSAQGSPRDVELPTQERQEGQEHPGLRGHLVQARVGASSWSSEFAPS

Ki | pKi | SMILES
53 nM (antagonist) |  | Nc1nc(N2CCN3C[C@H](COc4ccccc4)CC[C@H]3C2)nc2nc(-c3ccco3)nn12 (racemic)
9 nM (antagonist) |  | Nc1nc(N2CCN3C[C@@H](CNc4ncccn4)CC[C@H]3C2)nc2nc(-c3ccco3)nn12 (racemic)
70 nM (antagonist) |  | Nc1nc(N2CCN3C[C@@H](COc4ccc(F)cc4F)CC[C@H]3C2)nc2nc(-c3ccco3)nn12 (racemic)
36 nM (antagonist) |  | Nc1nc(N2CCN3C[C@@H](COc4cc5ccccc5cn4)CC[C@H]3C2)nc2nc(-c3ccco3)nn12 (racemic)
130 nM (antagonist) |  | Nc1nc(N2CCN3C[C@H](COc4cc5ccccc5cn4)CC[C@H]3C2)nc2nc(-c3ccco3)nn12 (racemic)
130 nM (antagonist) |  | Nc1nc(NC[C@@H]2CC[C@@H]3CN(Cc4ccc(F)cc4F)CCN3C2)nc2nc(-c3ccco3)nn12 (racemic)
35 nM (antagonist) |  | COc1ccc(OC[C@H]2CC[C@H]3CN(c4nc(N)n5nc(-c6ccco6)nc5n4)CCN3C2)cc1 (racemic)
 | < 6.30 | Cn1nc(C(F)(F)F)c(CN2CCN3C[C@@H](CNc4nc(N)n5nc(-c6ccco6)nc5n4)CC[C@@H]3C2)c1Cl (racemic)
0.9 nM (antagonist) |  | Nc1nc(N2CCN3C[C@@H](COc4ccccc4F)CC[C@H]3C2)nc2nc(-c3ccco3)nn12 (racemic)
4 nM (antagonist) |  | Nc1nc(N2CCN3C[C@@H](COc4ccc(F)cc4)CC[C@H]3C2)nc2nc(-c3ccco3)nn12 (racemic)
34 nM (antagonist) |  | COC(=O)c1nc(Cl)c(N2CCN3C[C@H](CNc4nc(N)n5nc(-c6ccco6)nc5n4)CC[C@@H]3C2)nc1N (racemic)
36 nM (antagonist) |  | Nc1nc(N2CCN3C[C@@H](CNCc4ccncc4)CC[C@H]3C2)nc2nc(-c3ccco3)nn12 (racemic)
49 nM (antagonist) |  | Nc1nc(NC[C@@H]2CC[C@@H]3CN(c4cc(F)cc(F)c4)CCN3C2)nc2nc(-c3ccco3)nn12 (racemic)
45 nM (antagonist) |  | Nc1cc(N2CCN3C[C@@H](COc4ccccc4)CC[C@H]3C2)nc2nc(-c3ccco3)nn12 (racemic)
13 nM (antagonist) |  | Nc1nc(N2CCN3[C@@H](COc4ccccc4)CCC[C@H]3C2)nc2nc(-c3ccco3)nn12 (racemic)
70 nM (antagonist) |  | COc1ccc(OC[C@@H]2CC[C@H]3CN(c4nc(N)n5nc(-c6ccco6)nc5n4)CCN3C2)cc1 (racemic)

SMILES | Ki | pKi
Nc1nc(N2CCN3C[C@@H](Cn4cnnn4)CC[C@H]3C2)nc2nc(-c3ccco3)nn12 (racemic) | 14 nM (antagonist) | 
Nc1cc(N2CCN3[C@@H](COc4cccnc4)CCC[C@H]3C2)nc2nc(-c3ccco3)nn12 (racemic) | 80 nM (antagonist) | 
Nc1nc(N2CCN3C[C@@H](COc4cccc5cnccc45)CC[C@H]3C2)nc2nc(-c3ccco3)nn12 (racemic) | 6 nM (antagonist) | 
Nc1nc(N2CCN3C[C@H](COc4ncnc5ccccc45)CC[C@H]3C2)nc2nc(-c3ccco3)nn12 (racemic) | 37 nM (antagonist) | 
Nc1nc(N2CCN3C[C@H](COc4cccc5cnccc45)CC[C@H]3C2)nc2nc(-c3ccco3)nn12 (racemic) | 73 nM (antagonist) | 
Nc1nc(N2CCN3C[C@@H](COc4ncnc5ccccc45)CC[C@H]3C2)nc2nc(-c3ccco3)nn12 (racemic) | 19 nM (antagonist) | 
Nc1nc(N2CCN3C[C@@H](COc4cccnc4)CC[C@H]3C2)nc2nc(-c3ccco3)nn12 (racemic) | 0.3 nM (antagonist) | 
Nc1nc(NC[C@H]2CC[C@@H]3CN(c4ncccn4)CCN3C2)nc2nc(-c3ccco3)nn12 (racemic) | 230 nM (antagonist) | 
Nc1nc(N2CCN3C[C@@H](COc4ncnc5[nH]ncc45)CC[C@@H]3C2)nc2nc(-c3ccco3)nn12 (racemic) | 5 nM (antagonist) | 
Nc1nc(N2CCN3C[C@@H](Cn4ccnc4)CC[C@H]3C2)nc2nc(-c3ccco3)nn12 (racemic) | 0.3 nM (antagonist) | 
Nc1nc(N2CCN3C[C@@H](COc4ccncc4)CC[C@H]3C2)nc2nc(-c3ccco3)nn12 (racemic) | 25 nM (antagonist) | 
Nc1nc(N2CCN3C[C@H](COc4ccccn4)CC[C@H]3C2)nc2nc(-c3ccco3)nn12 (racemic) | 41 nM (antagonist) | 
Nc1nc(N2CCN3C[C@@H](COc4ccccn4)CC[C@H]3C2)nc2nc(-c3ccco3)nn12 (racemic) | 20 nM (antagonist) | 

Molecular target: T1, Adenosine receptor A1 (Rattus norvegicus, UniProt P25099)
T1 sequence (P25099 whole entry): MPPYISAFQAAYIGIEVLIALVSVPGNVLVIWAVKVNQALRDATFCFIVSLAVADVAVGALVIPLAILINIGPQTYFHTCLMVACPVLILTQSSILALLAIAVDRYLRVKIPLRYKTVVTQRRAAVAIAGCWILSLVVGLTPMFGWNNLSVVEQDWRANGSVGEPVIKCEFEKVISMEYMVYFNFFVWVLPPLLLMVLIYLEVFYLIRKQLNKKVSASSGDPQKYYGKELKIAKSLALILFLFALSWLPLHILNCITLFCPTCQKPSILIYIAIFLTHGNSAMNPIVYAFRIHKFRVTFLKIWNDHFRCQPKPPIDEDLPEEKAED
Assay: Displacement of [3h]DPCPX from adenosine A receptor in rat cerebral cortex membrane

pKi | SMILES | Ki
< 6.30 | Nc1nc(N2CCN3C[C@H](COc4ccccc4)CC[C@H]3C2)nc2nc(-c3ccco3)nn12 (racemic) | 
5.82 | Nc1nc(N2CCN3C[C@@H](CNc4ncccn4)CC[C@H]3C2)nc2nc(-c3ccco3)nn12 (racemic) | 
< 6.30 | Nc1nc(N2CCN3C[C@@H](COc4ccc(F)cc4F)CC[C@H]3C2)nc2nc(-c3ccco3)nn12 (racemic) | 
< 6.00 | Nc1nc(N2CCN3C[C@@H](COc4cc5ccccc5cn4)CC[C@H]3C2)nc2nc(-c3ccco3)nn12 (racemic) | 
 | Nc1nc(N2CCN3C[C@H](COc4cccc5cnccc45)CC[C@H]3C2)nc2nc(-c3ccco3)nn12 (racemic) | 210 nM (antagonist)
 | Nc1nc(N2CCN3C[C@H](COc4cc5ccccc5cn4)CC[C@H]3C2)nc2nc(-c3ccco3)nn12 (racemic) | 710 nM (antagonist)
< 6.30 | Nc1nc(NC[C@@H]2CC[C@@H]3CN(Cc4ccc(F)cc4F)CCN3C2)nc2nc(-c3ccco3)nn12 (racemic) | 
< 6.30 | COc1ccc(OC[C@H]2CC[C@H]3CN(c4nc(N)n5nc(-c6ccco6)nc5n4)CCN3C2)cc1 (racemic) | 
< 6.00 | Cn1nc(C(F)(F)F)c(CN2CCN3C[C@@H](CNc4nc(N)n5nc(-c6ccco6)nc5n4)CC[C@@H]3C2)c1Cl (racemic) | 
< 6.30 | Nc1nc(N2CCN3C[C@@H](COc4ccccc4F)CC[C@H]3C2)nc2nc(-c3ccco3)nn12 (racemic) | 
< 6.30 | Nc1nc(N2CCN3C[C@@H](COc4ccc(F)cc4)CC[C@H]3C2)nc2nc(-c3ccco3)nn12 (racemic) | 
< 6.00 | COC(=O)c1nc(Cl)c(N2CCN3C[C@H](CNc4nc(N)n5nc(-c6ccco6)nc5n4)CC[C@@H]3C2)nc1N (racemic) | 
< 6.30 | Nc1nc(N2CCN3C[C@@H](CNCc4ccncc4)CC[C@H]3C2)nc2nc(-c3ccco3)nn12 (racemic) | 
< 6.30 | Nc1nc(NC[C@@H]2CC[C@@H]3CN(c4cc(F)cc(F)c4)CCN3C2)nc2nc(-c3ccco3)nn12 (racemic) | 
< 6.30 | Nc1cc(N2CCN3C[C@@H](COc4ccccc4)CC[C@H]3C2)nc2nc(-c3ccco3)nn12 (racemic) | 
< 6.30 | Nc1nc(N2CCN3[C@@H](COc4ccccc4)CCC[C@H]3C2)nc2nc(-c3ccco3)nn12 (racemic) | 
< 6.30 | COc1ccc(OC[C@@H]2CC[C@H]3CN(c4nc(N)n5nc(-c6ccco6)nc5n4)CCN3C2)cc1 (racemic) | 

SMILES | pKi | Ki
Nc1nc(N2CCN3C[C@@H](Cn4cnnn4)CC[C@H]3C2)nc2nc(-c3ccco3)nn12 (racemic) | < 6.30 | 
Nc1cc(N2CCN3[C@@H](COc4cccnc4)CCC[C@H]3C2)nc2nc(-c3ccco3)nn12 (racemic) | < 6.30 | 
Nc1nc(N2CCN3C[C@@H](COc4cccc5cnccc45)CC[C@H]3C2)nc2nc(-c3ccco3)nn12 (racemic) | 5.46 | 
Nc1nc(N2CCN3C[C@H](COc4ncnc5ccccc45)CC[C@H]3C2)nc2nc(-c3ccco3)nn12 (racemic) | < 6.00 | 
Nc1nc(N2CCN3C[C@@H](COc4ncnc5ccccc45)CC[C@H]3C2)nc2nc(-c3ccco3)nn12 (racemic) | < 6.30 | 
Nc1nc(N2CCN3C[C@@H](COc4cccnc4)CC[C@H]3C2)nc2nc(-c3ccco3)nn12 (racemic) | 5.85 | 
Nc1nc(NC[C@H]2CC[C@@H]3CN(c4ncccn4)CCN3C2)nc2nc(-c3ccco3)nn12 (racemic) | < 6.00 | 
Nc1nc(N2CCN3C[C@@H](COc4ncnc5[nH]ncc45)CC[C@@H]3C2)nc2nc(-c3ccco3)nn12 (racemic) | < 6.30 | 
Nc1nc(N2CCN3C[C@@H](Cn4ccnc4)CC[C@H]3C2)nc2nc(-c3ccco3)nn12 (racemic) | 5.92 | 
Nc1nc(N2CCN3C[C@@H](COc4ccncc4)CC[C@H]3C2)nc2nc(-c3ccco3)nn12 (racemic) | < 6.00 | 
Nc1nc(N2CCN3C[C@H](COc4ccccn4)CC[C@H]3C2)nc2nc(-c3ccco3)nn12 (racemic) | < 6.30 | 
Nc1nc(N2CCN3C[C@@H](COc4ccccn4)CC[C@H]3C2)nc2nc(-c3ccco3)nn12 (racemic) | < 6.00 | 
